These results are taken from ChEMBL document CHEMBL5465560, “Selectivity Literature for EUbOPEN Chemogenomic Library” (2024).

Each structure is given as a SMILES string.

For assay [1], the system named is Hepatocyte growth factor receptor (Homo sapiens), P08581 [Y1230H]. In words: (§1) Selectivity interaction (ProQinase) EUB0000171b MET.
Assay [2] deals with Hepatocyte growth factor receptor (Homo sapiens, UniProt P08581). The description is as §1.
Assay [3] has as its system Hepatocyte growth factor receptor (Homo sapiens), P08581 [Y1230C]. The assay is described as §1.
Assay [4] concerns Hepatocyte growth factor receptor (Homo sapiens), P08581 [M1250T]. The assay is described as §1.
The test system of assay [5] is Hepatocyte growth factor receptor (Homo sapiens), P08581 [D1228H]. The description is as §1.
Assay [6] concerns Hepatocyte growth factor receptor (Homo sapiens), P08581 [D1228N]. The description is as §1.
Assay [7] deals with Hepatocyte growth factor receptor (Homo sapiens), P08581 [F1200I]. Described as §1.
Assay [8] concerns Hepatocyte growth factor receptor (Homo sapiens), P08581 [Y1230D]. Described as §1.
In assay [9] the test system is Hepatocyte growth factor receptor (Homo sapiens), P08581 [Y1235D]. The description is as §1.
The test system of assay [10] is Hepatocyte growth factor receptor (Homo sapiens), P08581 [Y1230A]. The description is as §1.
Assay [11] deals with T1, Myotonin-protein kinase (Homo sapiens) (UniProt Q09013).
T1 sequence (whole entry): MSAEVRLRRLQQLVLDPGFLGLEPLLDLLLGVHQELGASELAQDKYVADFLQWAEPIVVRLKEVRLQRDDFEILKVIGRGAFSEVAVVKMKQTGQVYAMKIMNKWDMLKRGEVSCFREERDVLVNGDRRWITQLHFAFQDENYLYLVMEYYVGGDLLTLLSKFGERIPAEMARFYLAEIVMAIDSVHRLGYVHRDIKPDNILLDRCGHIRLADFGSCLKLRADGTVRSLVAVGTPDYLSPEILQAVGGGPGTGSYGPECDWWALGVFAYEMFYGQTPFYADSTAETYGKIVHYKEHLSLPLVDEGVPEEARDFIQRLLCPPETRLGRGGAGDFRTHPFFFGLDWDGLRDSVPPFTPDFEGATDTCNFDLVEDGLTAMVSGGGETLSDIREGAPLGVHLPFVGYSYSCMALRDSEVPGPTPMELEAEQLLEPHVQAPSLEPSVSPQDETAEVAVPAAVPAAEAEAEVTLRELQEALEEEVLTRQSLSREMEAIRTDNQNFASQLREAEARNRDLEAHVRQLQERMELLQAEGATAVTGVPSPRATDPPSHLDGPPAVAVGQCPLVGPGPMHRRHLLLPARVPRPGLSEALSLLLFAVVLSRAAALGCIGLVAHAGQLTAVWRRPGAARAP
In words: Selectivity interaction (KinomeScan (DiscoverX)) EUB0001079a DMPK. To be noted: at 1 µM.

A short description of assay [12]: Selectivity interaction (KinomeScan (DiscoverX)) EUB0000655a CDK2H. To be noted: at 10 µM.
In assay [13] the target is Cyclin-dependent kinase 5 (Homo sapiens, UniProt Q00535). In words: Selectivity interaction (KinomeScan (DiscoverX)) EUB0000655a CDK5. To be noted: at 10 µM.
Assay [14] addresses Ribosomal protein S6 kinase alpha-2 (Homo sapiens) (UniProt Q15349). In words: Selectivity interaction (KinomeScan (DiscoverX)) EUB0000045b RPS6KA2. The settings on record: at 10 µM.
Assay [15] deals with Ribosomal protein S6 kinase alpha-4 (Homo sapiens) (UniProt O75676). In words: Selectivity interaction (KinomeScan (DiscoverX)) EUB0000607a RPS6KA4. The settings on record: at 10 µM.
Assay [16] addresses CDK4/Cyclin D3 (Homo sapiens) (UniProt P11802+P30281). In words: (§2) Selectivity interaction (KinomeScan (DiscoverX)) EUB0000595a CDK4. The settings on record: at 10 µM. The assay is classed as protein-complex assay.
Assay [17] has as its target Cyclin-dependent kinase 4/cyclin D1 (Homo sapiens) (UniProt P11802+P24385). The description is as §2. Type of assay: protein-complex assay. To be noted: at 10 µM.
Assay [18] deals with T2, Dual specificity protein kinase TTK (Homo sapiens) (UniProt P33981).
T2 sequence (whole entry): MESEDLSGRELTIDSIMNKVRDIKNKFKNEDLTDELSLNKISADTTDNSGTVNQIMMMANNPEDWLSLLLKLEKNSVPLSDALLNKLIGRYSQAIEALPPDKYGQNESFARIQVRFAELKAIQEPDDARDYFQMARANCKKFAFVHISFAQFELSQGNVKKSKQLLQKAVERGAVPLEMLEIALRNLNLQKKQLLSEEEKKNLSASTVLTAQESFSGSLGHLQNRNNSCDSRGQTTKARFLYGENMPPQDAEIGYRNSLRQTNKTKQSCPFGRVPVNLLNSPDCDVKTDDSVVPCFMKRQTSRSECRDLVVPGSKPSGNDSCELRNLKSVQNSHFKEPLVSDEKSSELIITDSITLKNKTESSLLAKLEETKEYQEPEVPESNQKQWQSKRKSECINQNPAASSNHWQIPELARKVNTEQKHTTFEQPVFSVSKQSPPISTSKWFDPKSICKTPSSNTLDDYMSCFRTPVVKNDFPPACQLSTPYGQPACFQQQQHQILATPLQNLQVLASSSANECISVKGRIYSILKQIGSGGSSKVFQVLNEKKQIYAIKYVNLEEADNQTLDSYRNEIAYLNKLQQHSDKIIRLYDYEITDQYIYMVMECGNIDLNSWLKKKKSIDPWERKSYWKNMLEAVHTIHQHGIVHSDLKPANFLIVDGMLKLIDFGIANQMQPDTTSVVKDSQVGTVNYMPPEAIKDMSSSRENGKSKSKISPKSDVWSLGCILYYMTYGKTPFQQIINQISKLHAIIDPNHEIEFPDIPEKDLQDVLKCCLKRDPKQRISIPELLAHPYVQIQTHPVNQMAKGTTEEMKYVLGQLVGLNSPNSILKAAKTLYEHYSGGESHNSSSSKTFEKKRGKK
In words: Selectivity interaction (KinomeScan (DiscoverX)) EUB0000618a TTK. To be noted: at 10 µM.

Hepatocyte growth factor receptor (Homo sapiens), P08581 [Y1230A], sequence (P08581 whole entry Y1230A): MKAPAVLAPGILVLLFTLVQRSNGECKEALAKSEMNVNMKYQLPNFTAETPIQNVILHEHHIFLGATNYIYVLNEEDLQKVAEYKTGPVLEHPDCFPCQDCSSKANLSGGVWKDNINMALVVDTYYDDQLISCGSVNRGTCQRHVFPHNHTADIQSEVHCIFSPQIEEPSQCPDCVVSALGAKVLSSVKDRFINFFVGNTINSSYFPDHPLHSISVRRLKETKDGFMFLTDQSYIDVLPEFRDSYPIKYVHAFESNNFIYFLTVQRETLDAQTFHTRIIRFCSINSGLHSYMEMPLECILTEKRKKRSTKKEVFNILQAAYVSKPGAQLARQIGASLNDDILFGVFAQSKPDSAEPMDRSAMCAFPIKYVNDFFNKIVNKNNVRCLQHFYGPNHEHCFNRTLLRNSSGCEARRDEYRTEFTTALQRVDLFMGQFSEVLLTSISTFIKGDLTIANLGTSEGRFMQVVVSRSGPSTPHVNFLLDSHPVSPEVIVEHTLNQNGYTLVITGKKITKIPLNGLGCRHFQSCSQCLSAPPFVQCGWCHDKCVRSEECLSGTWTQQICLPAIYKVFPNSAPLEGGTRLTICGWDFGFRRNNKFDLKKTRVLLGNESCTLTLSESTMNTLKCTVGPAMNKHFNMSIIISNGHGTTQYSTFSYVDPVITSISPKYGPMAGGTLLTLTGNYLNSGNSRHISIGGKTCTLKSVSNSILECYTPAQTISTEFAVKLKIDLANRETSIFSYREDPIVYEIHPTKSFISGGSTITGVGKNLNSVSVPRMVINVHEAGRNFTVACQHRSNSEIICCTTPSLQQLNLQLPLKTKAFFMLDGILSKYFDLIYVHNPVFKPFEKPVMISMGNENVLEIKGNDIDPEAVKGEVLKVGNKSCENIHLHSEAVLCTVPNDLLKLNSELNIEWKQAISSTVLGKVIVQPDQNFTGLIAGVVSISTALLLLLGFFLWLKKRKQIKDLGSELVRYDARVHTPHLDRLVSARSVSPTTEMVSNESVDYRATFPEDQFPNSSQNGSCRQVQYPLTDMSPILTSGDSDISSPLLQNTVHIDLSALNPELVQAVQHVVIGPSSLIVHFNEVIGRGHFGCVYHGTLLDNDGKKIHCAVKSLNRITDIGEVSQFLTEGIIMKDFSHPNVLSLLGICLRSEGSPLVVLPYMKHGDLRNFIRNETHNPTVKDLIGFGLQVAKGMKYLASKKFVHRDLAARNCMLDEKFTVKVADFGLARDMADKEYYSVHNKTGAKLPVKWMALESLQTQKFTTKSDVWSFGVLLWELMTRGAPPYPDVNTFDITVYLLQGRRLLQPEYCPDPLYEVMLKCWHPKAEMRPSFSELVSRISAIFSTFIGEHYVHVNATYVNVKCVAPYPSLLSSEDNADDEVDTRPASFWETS
Hepatocyte growth factor receptor (Homo sapiens), P08581 [Y1230D], sequence (P08581 whole entry Y1230D): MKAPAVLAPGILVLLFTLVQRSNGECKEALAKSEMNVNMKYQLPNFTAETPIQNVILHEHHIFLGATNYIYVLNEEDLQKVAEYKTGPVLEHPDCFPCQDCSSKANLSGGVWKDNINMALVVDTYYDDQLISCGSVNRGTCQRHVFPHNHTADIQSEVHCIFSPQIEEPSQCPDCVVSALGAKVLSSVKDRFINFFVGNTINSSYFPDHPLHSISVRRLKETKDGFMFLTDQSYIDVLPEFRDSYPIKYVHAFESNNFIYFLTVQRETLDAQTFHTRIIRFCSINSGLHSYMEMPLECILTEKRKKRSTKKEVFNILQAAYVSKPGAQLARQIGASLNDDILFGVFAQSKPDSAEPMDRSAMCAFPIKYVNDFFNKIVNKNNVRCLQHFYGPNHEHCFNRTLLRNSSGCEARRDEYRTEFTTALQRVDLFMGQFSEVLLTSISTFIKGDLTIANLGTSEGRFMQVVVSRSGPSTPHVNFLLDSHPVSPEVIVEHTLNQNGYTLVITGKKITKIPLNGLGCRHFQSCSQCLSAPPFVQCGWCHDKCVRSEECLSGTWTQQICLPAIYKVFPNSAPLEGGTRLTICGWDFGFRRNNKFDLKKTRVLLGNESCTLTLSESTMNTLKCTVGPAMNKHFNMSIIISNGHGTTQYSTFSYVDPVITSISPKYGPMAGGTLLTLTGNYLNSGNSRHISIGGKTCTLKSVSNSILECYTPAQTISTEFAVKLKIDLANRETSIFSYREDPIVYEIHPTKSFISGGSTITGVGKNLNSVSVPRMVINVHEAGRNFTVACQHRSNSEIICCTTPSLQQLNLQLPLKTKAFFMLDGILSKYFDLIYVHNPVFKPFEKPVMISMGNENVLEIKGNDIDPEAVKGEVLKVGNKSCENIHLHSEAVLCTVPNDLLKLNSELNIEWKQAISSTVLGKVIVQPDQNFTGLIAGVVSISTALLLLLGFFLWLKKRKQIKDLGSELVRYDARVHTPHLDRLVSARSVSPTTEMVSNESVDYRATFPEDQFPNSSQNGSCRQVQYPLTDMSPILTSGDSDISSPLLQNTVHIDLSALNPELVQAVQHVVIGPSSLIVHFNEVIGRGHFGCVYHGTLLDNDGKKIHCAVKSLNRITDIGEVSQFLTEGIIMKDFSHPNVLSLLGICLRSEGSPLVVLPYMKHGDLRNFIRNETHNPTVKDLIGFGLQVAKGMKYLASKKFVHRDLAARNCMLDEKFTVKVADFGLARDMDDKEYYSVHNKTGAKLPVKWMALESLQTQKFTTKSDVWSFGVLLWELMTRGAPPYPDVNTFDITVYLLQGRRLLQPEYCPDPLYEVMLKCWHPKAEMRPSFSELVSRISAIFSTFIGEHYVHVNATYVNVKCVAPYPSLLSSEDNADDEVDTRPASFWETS
Hepatocyte growth factor receptor (Homo sapiens), P08581 [M1250T], sequence (P08581 whole entry M1250T): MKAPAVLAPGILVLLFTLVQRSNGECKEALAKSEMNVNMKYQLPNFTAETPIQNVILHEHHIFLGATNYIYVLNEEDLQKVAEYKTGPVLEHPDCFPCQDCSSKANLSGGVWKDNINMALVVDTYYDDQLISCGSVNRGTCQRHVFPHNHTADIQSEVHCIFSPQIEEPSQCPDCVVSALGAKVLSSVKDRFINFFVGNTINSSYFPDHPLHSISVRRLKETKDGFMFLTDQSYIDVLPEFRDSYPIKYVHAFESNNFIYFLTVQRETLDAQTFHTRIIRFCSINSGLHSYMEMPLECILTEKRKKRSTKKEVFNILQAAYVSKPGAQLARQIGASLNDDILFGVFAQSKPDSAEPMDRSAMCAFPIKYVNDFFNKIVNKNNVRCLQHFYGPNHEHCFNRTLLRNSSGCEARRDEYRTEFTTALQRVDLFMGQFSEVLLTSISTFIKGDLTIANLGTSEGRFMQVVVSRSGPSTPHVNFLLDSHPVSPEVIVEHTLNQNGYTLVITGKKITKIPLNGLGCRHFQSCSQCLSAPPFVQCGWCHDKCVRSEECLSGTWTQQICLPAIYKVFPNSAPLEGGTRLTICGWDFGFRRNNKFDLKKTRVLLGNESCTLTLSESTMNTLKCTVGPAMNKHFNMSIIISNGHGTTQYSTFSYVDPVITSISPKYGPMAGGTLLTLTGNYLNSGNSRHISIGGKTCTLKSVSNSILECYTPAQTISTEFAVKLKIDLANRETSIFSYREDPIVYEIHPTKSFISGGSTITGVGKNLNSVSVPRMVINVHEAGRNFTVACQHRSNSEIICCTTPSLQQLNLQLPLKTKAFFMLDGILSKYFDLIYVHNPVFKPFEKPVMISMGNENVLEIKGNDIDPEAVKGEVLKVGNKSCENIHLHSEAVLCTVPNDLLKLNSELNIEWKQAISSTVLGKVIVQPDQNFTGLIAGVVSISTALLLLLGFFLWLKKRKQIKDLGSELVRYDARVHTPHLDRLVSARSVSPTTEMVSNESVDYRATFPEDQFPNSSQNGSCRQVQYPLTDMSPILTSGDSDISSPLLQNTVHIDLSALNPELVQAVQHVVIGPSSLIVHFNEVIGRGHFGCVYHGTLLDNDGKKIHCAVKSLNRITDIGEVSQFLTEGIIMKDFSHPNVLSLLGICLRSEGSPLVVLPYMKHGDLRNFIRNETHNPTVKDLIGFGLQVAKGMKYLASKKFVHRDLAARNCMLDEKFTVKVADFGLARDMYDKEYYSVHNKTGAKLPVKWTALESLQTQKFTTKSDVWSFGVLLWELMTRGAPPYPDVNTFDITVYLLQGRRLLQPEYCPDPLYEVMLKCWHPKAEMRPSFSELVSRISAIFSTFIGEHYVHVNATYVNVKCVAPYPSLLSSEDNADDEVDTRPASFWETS
Ribosomal protein S6 kinase alpha-4 (Homo sapiens), sequence (O75676 whole entry, looked up): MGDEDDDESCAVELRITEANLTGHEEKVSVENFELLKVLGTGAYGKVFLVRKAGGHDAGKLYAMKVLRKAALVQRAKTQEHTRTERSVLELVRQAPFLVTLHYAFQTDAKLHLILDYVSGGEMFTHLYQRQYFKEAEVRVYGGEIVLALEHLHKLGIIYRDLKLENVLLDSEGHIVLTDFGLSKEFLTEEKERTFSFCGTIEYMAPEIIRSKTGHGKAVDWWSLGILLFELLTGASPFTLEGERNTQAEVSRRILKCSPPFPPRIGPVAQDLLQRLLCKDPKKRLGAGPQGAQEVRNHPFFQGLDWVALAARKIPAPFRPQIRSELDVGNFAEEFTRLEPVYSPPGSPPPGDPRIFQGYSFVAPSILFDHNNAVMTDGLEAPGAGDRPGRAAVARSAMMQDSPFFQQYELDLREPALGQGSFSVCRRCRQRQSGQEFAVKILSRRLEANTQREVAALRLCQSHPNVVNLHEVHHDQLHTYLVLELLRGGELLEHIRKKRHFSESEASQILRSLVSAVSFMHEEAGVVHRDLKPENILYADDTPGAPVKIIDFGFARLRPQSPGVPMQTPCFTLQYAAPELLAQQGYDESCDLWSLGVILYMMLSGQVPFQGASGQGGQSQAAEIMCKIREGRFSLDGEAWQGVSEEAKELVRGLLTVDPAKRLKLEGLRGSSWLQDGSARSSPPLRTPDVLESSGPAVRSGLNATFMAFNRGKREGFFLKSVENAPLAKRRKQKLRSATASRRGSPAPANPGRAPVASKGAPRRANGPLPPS

In the case of `C=CC(=O)Nc1cccc(C(=O)Nc2ccc(Nc3cc(-c4[nH]c(SC)nc4C)ccn3)cc2)c1`, the % of control in assay [1] (at 1 µM) turned out to be 92%; in assay [1] (at 5 µM), 72%; in assay [2] (at 1 µM) it was 93%; in assay [2] (at 5 µM), 78%; in assay [3] (at 1 µM) it was 90%; in assay [3] (at 5 µM), 76%. Also, the % of control in assay [4] (at 1 µM) was found to be 88%; in assay [4] (at 5 µM), 65%; in [5] (at 1 µM), 76%; in assay [5] (at 5 µM), 65%; in assay [6] (at 1 µM) it was 89%; in assay [6] (at 5 µM), 74%. The % of control in assay [7] (at 1 µM) was 81%; in [7] (at 5 µM) it was 59%; in assay [8] (at 1 µM), 88%; in [8] (at 5 µM), 73%; in assay [9] (at 1 µM), 105%; in [9] (at 5 µM) it was 86%. In addition, the % of control was determined as 97% in [10] (at 1 µM) and 85% in assay [10] (at 5 µM).

For `Nc1cnc(N2CCc3cc(S(=O)(=O)Nc4c(F)cc(Cl)cc4F)cc(N4CCCC4=O)c32)nc1` [TP-020n], the % of control in [11] stood at 100%.

Turning to `CN(C)CCOc1ccc(-c2nc(-c3ccncc3)c(-c3ccc4c(c3)CC/C4=N\O)[nH]2)cc1`, the figures for the % of control in assay [12] and in assay [13] were 86% and 100%, respectively.

As for `C=CC(=O)Nc1cc(-n2c(=O)ccc3cnc4ccc(-c5ccc(NS(C)(=O)=O)cc5)cc4c32)ccc1C`, the % of control in assay [14] was 78%.

`CNC(=O)Nc1ccc(-c2nc(N3CC4CCC(C3)O4)c3cnn(C4CCC5(CC4)OCCO5)c3n2)cc1`: in [15], the % of control turned out to be 100%.

On to `COCC(=O)NC/C=C/c1ccc2ncnc(Nc3ccc(Oc4ccc(C)nc4)c(C)c3)c2c1` [CP-724714], for which the % of control in [16] and in assay [17] was 100% in each case.

For `O[C@H]1CC[C@H](Nc2ncc3nc(Nc4c(F)cc(F)cc4F)n([C@H]4CCOC4)c3n2)CC1`, the % of control in assay [18] stood at 85%.
